The test system of data set [1] is TTR. Description: TTR editing in primary human hepatocytes transfected with Spy Cas9 protein (RNP) loaded with dgRNAs (Table 8). The note with it: dgRNA transfected with Spy Cas9 protein (RNP). Format: cell-based. The essentials: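 Primary human hepatocytes were lipofected (RNAiMAX) with RNP of Spy Cas9 (10 nM) plus pre-annealed crRNA (10 nM) and trRNA (10 nM) and harvested 24, 48 or 72 h later. Target-site amplicons were sequenced on Illumina MiSeq and aligned to hg38; percent editing = reads with indels or substitutions over total reads.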

The test system of data set [2] is off-target genomic sites. The data set can be described thus: Off-target oligo insertion based assay in HEK293_Cas9 cells, dgRNAs and sgRNAs (Tables 23, 24). The note with it: Table 23; TTR dgRNAs in HekCas9 cells, oligo insertion based assay. Format: cell-based, human. The method in brief:
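In HEK293 cells constitutively expressing Spy Cas9, crRNA (15 nM) plus trRNA (15 nM), or modified sgRNAs, were lipofected with donor oligo (10 nM). Genomic DNA was collected at 24 h, and oligo-insertion libraries were sequenced on MiSeq/HiSeq to map potential off-target cleavage sites.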

The test system of data set [3] is TTR. Description: TTR editing in HepG2 cells transfected with Spy Cas9 mRNA and dgRNAs (Table 6). Format: cell-based, human. The note with it: HepG2 cells co-transfected with Spy Cas9 mRNA (SEQ ID NO:2) and dgRNAs. The essentials: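 Percent editing is the share of sequencing reads at the TTR target locus that carry insertions, deletions or substitutions, measured by Illumina amplicon sequencing aligned to hg38. Samples came from HepG2 cells lipofected first with 100 ng Cas9 mRNA and then with dual-guide RNA (25 nM crRNA/tracer), collected 24–72 h later.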

On to “UUCUUUGGCAACUUACCCAG (tested as dual guide RNA, chemistry not given here) [CR003357]”, for which, in data set [1], the “Avg % Deletion” value stood at 0.90%, the “Avg % Edit” value stood at 49.35% and the “Avg % Insert” value is 48.45%. Also, the “# Sites (off-target integration sites detected)” value (from here on “# Sites”) in data set [2] is 3. In addition, in data set [3], the “Avg % Deletion” value is listed as 3.46%, the “Avg % Edit” value worked out at 45.83% and the “Avg % Insert” value is recorded as 42.37%.
For “GGGAUUGGUGACGACAGCCG (tested as dual guide RNA, chemistry not given here) [CR003390]”, in data set [1], the “Avg % Deletion” value was 0.24%, the “Avg % Edit” value is 16.09% and the “Avg % Insert” value came to 15.85%. Also, in data set [2], the “# Sites” value is 1. Further, in data set [3], the “Avg % Deletion” value turned out to be 2.44%, the “Avg % Edit” value was found to be 24.88% and the “Avg % Insert” value is listed as 22.44%.
Turning to “GGCUGUCGUCACCAAUCCCA (tested as dual guide RNA, chemistry not given here) [CR003391]”, in data set [1], the “Avg % Deletion” value is on record as 0.26%, the “Avg % Edit” value was 34.72% and the “Avg % Insert” value came to 34.46%. For the same sequence, the “# Sites” value in data set [2] is 0. Further, in data set [3], the “Avg % Deletion” value is 0.50%, the “Avg % Edit” value was determined as 48.78% and the “Avg % Insert” value is 48.28%.
“AUACCAGUCCAGCAAGGCAG (tested as dual guide RNA, chemistry not given here) [CR003338]”: in data set [1], the “Avg % Deletion” value worked out at 2.22%, the “Avg % Edit” value came out at 61.34% and the “Avg % Insert” value was determined as 59.13%. In addition, in data set [2], the “# Sites” value is 2. In addition, in data set [3], the “Avg % Deletion” value is reported as 2.60%, the “Avg % Edit” value came to 68.00% and the “Avg % Insert” value is given as 65.40%.
Turning to “AAGUGCCUUCCAGUAAGAUU (tested as dual guide RNA, chemistry not given here) [CR003368]”, in data set [1], the “Avg % Deletion” value is recorded as 1.00%, the “Avg % Edit” value is listed as 34.83% and the “Avg % Insert” value is listed as 33.83%. Moreover, in data set [2], the “# Sites” value stood at 2. In data set [3], the “Avg % Deletion” value is on record as 3.22%, the “Avg % Edit” value is 51.55% and the “Avg % Insert” value turned out to be 48.34%.
Regarding “AGUGAGUCUGGAGAGCUGCA (tested as dual guide RNA, chemistry not given here) [CR003359]”, in data set [1], the “Avg % Deletion” value was 8.51%, the “Avg % Edit” value came to 59.47% and the “Avg % Insert” value was 50.96%. Besides, in data set [2], the “# Sites” value is reported as 6. Besides, in data set [3], the “Avg % Deletion” value worked out at 15.65%, the “Avg % Edit” value is 64.44% and the “Avg % Insert” value is on record as 48.79%.
With “UUUGACCAUCAGAGGACACU (tested as dual guide RNA, chemistry not given here) [CR003344]”, in data set [1], the “Avg % Deletion” value amounted to 4.48%, the “Avg % Edit” value stood at 35.45% and the “Avg % Insert” value is recorded as 30.97%. Further, in data set [2], the “# Sites” value is recorded as 0. Also, in data set [3], the “Avg % Deletion” value worked out at 3.62%, the “Avg % Edit” value amounted to 33.43% and the “Avg % Insert” value worked out at 29.81%.
Turning to “GCAGGGCGGCAAUGGUGUAG (tested as dual guide RNA, chemistry not given here) [CR003380]”, in data set [1], the “Avg % Deletion” value is 0.46%, the “Avg % Edit” value was determined as 8.17% and the “Avg % Insert” value was found to be 7.71%. Also, the “# Sites” value in data set [2] stood at 0. Further, in data set [3], the “Avg % Deletion” value was determined as 2.30%, the “Avg % Edit” value is reported as 17.08% and the “Avg % Insert” value is on record as 14.78%.
Consider “GUCACAGAAACACUCACCGU (tested as dual guide RNA, chemistry not given here) [CR005301]”, for which, in data set [1], the “Avg % Deletion” value was 1.84%, the “Avg % Edit” value turned out to be 31.37% and the “Avg % Insert” value is given as 29.53%. The “# Sites” value in data set [2] is reported as 0. Moreover, in data set [3], the “Avg % Deletion” value is listed as 3.65%, the “Avg % Edit” value is recorded as 37.04% and the “Avg % Insert” value is given as 33.39%.
For “ACUGAGGAGGAAUUUGUAGA (tested as dual guide RNA, chemistry not given here) [CR003363]”, in data set [1], the “Avg % Deletion” value is 6.18%, the “Avg % Edit” value was 27.65% and the “Avg % Insert” value is 21.47%. Moreover, the “# Sites” value in data set [2] was 4. Also, in data set [3], the “Avg % Deletion” value was found to be 14.07%, the “Avg % Edit” value is on record as 42.65% and the “Avg % Insert” value was found to be 28.58%.
Consider “GGAGUAGGGGCUCAGCAGGG (tested as dual guide RNA, chemistry not given here) [CR003382]”, for which, in data set [1], the “Avg % Deletion” value is on record as 0.15%, the “Avg % Edit” value was 2.44% and the “Avg % Insert” value turned out to be 2.28%. Moreover, the “# Sites” value in data set [2] turned out to be 34. Also, in data set [3], the “Avg % Deletion” value is 0.15%, the “Avg % Edit” value is 1.73% and the “Avg % Insert” value is 1.58%.
For the sequence “UCUAGAACUUUGACCAUCAG (tested as dual guide RNA, chemistry not given here) [CR003345]”, in data set [1], the “Avg % Deletion” value amounted to 7.91%, the “Avg % Edit” value was 28.90% and the “Avg % Insert” value is recorded as 21.00%. The “# Sites” value in data set [2] stood at 0. In data set [3], the “Avg % Deletion” value is listed as 4.45%, the “Avg % Edit” value was determined as 10.58% and the “Avg % Insert” value is recorded as 6.12%.
As for “CCUCCUCUGCCUUGCUGGAC (tested as dual guide RNA, chemistry not given here) [CR003336]”, in data set [1], the “Avg % Deletion” value was 0.58%, the “Avg % Edit” value is on record as 30.70% and the “Avg % Insert” value was 30.11%. The “# Sites” value in data set [2] came to 2. Also, in data set [3], the “Avg % Deletion” value is listed as 0.83%, the “Avg % Edit” value is reported as 31.31% and the “Avg % Insert” value is recorded as 30.48%.
Take “UGUAGAAGGGAUAUACAAAG (tested as dual guide RNA, chemistry not given here) [CR003365]”: in data set [1], the “Avg % Deletion” value is 7.54%, the “Avg % Edit” value is 47.78% and the “Avg % Insert” value worked out at 40.24%. In data set [2], the “# Sites” value turned out to be 3. Moreover, in data set [3], the “Avg % Deletion” value was 11.11%, the “Avg % Edit” value amounted to 46.88% and the “Avg % Insert” value is 35.77%.
Regarding “AGACACCAAAUCUUACUGGA (tested as dual guide RNA, chemistry not given here) [CR003367]”, in data set [1], the “Avg % Deletion” value is 15.13%, the “Avg % Edit” value is 31.19% and the “Avg % Insert” value is recorded as 16.06%. Also, the “# Sites” value in data set [2] came to 1. In data set [3], the “Avg % Deletion” value is listed as 21.27%, the “Avg % Edit” value worked out at 45.55% and the “Avg % Insert” value was determined as 24.28%.
As for “AUUGGUGACGACAGCCGUGG (tested as dual guide RNA, chemistry not given here) [CR003389]”, in data set [1], the “Avg % Deletion” value came out at 0.68%, the “Avg % Edit” value is on record as 19.87% and the “Avg % Insert” value is listed as 19.19%. Besides, in data set [2], the “# Sites” value was 2. In data set [3], the “Avg % Deletion” value stood at 4.57%, the “Avg % Edit” value amounted to 31.84% and the “Avg % Insert” value turned out to be 27.27%.
As to “GACGACAGCCGUGGUGGAAU (tested as dual guide RNA, chemistry not given here) [CR003388]”, in data set [1], the “Avg % Deletion” value came out at 1.05%, the “Avg % Edit” value amounted to 5.43% and the “Avg % Insert” value was 4.38%. In addition, the “# Sites” value in data set [2] was 2. Also, in data set [3], the “Avg % Deletion” value came out at 1.56%, the “Avg % Edit” value came to 9.33% and the “Avg % Insert” value was found to be 7.76%.
Regarding “GUGAGUCUGGAGAGCUGCAU (tested as dual guide RNA, chemistry not given here) [CR003360]”, in data set [1], the “Avg % Deletion” value is 1.19%, the “Avg % Edit” value is 31.47% and the “Avg % Insert” value is 30.27%. In addition, the “# Sites” value in data set [2] came to 0. Besides, in data set [3], the “Avg % Deletion” value is 2.38%, the “Avg % Edit” value was determined as 41.31% and the “Avg % Insert” value was 38.94%.
Take “AAAGUUCUAGAUGCUGUCCG (tested as dual guide RNA, chemistry not given here) [CR003346]”: in data set [1], the “Avg % Deletion” value amounted to 1.84%, the “Avg % Edit” value is 4.11% and the “Avg % Insert” value amounted to 2.27%. Also, the “# Sites” value in data set [2] amounted to 0. In data set [3], the “Avg % Deletion” value stood at 0.05%, the “Avg % Edit” value was 0.13% and the “Avg % Insert” value is recorded as 0.07%.
Turning to “CCGUGGUGGAAUAGGAGUAG (tested as dual guide RNA, chemistry not given here) [CR003386]”, in data set [1], the “Avg % Deletion” value was determined as 0.25%, the “Avg % Edit” value was found to be 3.22% and the “Avg % Insert” value stood at 2.97%. For the same sequence, in data set [2], the “# Sites” value was determined as 1. Moreover, in data set [3], the “Avg % Deletion” value is listed as 0.56%, the “Avg % Edit” value is 2.71% and the “Avg % Insert” value is 2.15%.

These data come from US11795460B2, “Compositions and methods for TTR gene editing and treating ATTR amyloidosis” (Intellia Therapeutics, Inc., priority 2017, dated 2023).
